From patent US10030016B2 (Sunesis Pharmaceuticals, Inc., priority 2009, dated 2018)

How the values were obtained:
[1] = system: phospho-akt (Thr308) in PC-3 cells; assay: Inhibition of phospho-akt (Thr308) in PC-3 cells, MSD phospho-akt 308 ELISA kit; type: cell-based; settings: Homo sapiens; inhibition of P308 Akt in PC-3 cells using MSD, 2 hours, no serum; read-out: EC50
In short: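 Serum-free 2 h compound exposure of overnight-seeded PC-3 cells, threefold dilution series; lysates analysed on blocked MSD plates (3% BSA) for Thr308-phosphorylated Akt, normalised between DMSO and 5 μM wortmannin wells.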

[2] = target: PDK1 (Homo sapiens (Human), UniProt O15530); assay: PDK1 kinase assay (coupled PDK1/AKT/FAM-crosstide assay, IMAP fluorescence polarization); type: biochemical; settings: inhibition of PDK1 in vitro
In short: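 GST-tagged human PDK1 (aa 51-359, 0.75 nM) from insect cells activated unphosphorylated GST-AKT2 (aa 140-467–PIFtide fusion, 10 nM), which phosphorylated 100 nM FAM-crosstide; 40 μM ATP, pH 7.2 Tris/MgCl2, 30 min at 25° C. IMAP fluorescence polarization read-out; ΔmP versus compound concentration fitted with a 4-parameter curve.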

Chain of PDK1 (O15530 51-359): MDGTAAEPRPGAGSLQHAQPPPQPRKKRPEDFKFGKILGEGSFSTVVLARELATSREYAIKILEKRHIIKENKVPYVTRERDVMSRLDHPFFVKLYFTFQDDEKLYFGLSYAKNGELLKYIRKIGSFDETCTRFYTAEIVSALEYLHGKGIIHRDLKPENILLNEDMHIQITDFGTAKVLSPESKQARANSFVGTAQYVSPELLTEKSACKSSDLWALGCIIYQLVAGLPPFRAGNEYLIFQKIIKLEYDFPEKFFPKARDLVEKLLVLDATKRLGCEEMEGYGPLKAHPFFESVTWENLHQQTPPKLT

`C[C@H](NC(=O)c1cc(C#N)cnc1NCc1ccc(-c2cnc(N)cn2)cc1F)c1ccc(F)cc1` [Example 130, (S)-2-(4-(5-aminopyrazin-2-yl)-2-fluorobenzylamino)-5-cyano-N-(1-(4-fluorophenyl)ethyl) nicotinamide] was tested, and the EC50 [1] was 1000 to 10000 nM and the IC50 [2] was less than 100 nM.
With `C[C@H](NC(=O)c1cc(C#N)cnc1NCc1ccc(-c2cnc(N)cn2)c(F)c1)c1ccc(F)cc1` [Example 131, (S)-2-(4-(5-aminopyrazin-2-yl)-3-fluorobenzylamino)-5-cyano-N-(1-(4-fluorophenyl)ethyl) nicotinamide] the EC50 [1] was 1000 to 10000 nM and the IC50 [2] was less than 100 nM.
`Nc1n[nH]c2ncc(-c3ccc(CNc4ncc(C(F)(F)F)cc4C(=O)NCc4ccc(F)c(F)c4)cc3)cc12` [Example 132, 2-(4-(3-amino-1H-pyrazolo [3,4-b]pyridin-5-yl)benzylamino)-N-(3,4-difluorobenzyl)-5-(trifluoromethyl) nicotinamide] showed an EC50 [1] of less than 1000 nM and an IC50 [2] of less than 100 nM.
Compound `COc1cc(-c2ccc(CNc3ncc(C#N)cc3C(=O)N[C@@H](C)c3ccc(F)cc3)cc2)cnc1N` [Example 133, (S)-2-(4-(6-amino-5-methoxypyridin-3-yl)benzylamino)-5-cyano-N-(1-(4-fluorophenyl)ethyl)nicotinamide] has an EC50 [1] of less than 1000 nM and an IC50 [2] of less than 100 nM.
Compound `C[C@H](NC(=O)c1cc(C#N)cnc1NCc1ccc(-c2cnc(N)c(OC(F)F)c2)cc1)c1ccc(F)cc1` [Example 134, (S)-2-(4-(6-amino-5-(difluoromethoxy)pyridin-3-yl)benzylamino)-5-cyano-N-(1-(4-fluorophenyl)ethyl)nicotinamide] has an EC50 [1] of less than 1000 nM and an IC50 [2] of less than 100 nM.
With `C[C@H](NC(=O)c1cc(C#N)cnc1NCc1ccc(-c2cnc3[nH]cnc3c2)cc1)c1ccc(F)cc1` [Example 135, (S)-2-(4-(3H-imidazo [4,5-b]pyridin-6-yl)benzylamino)-5-cyano-N-(1-(4-fluorophenyl)ethyl)nicotinamide] the EC50 [1] was less than 1000 nM and the IC50 [2] was less than 100 nM.
`C[C@H](NC(=O)c1cc(C#N)cnc1NCc1ccc(-c2cnc(N)c(CO)c2)cc1)c1ccc(F)cc1` [Example 136, (S)-2-(4-(6-amino-5-(hydroxymethyl)pyridin-3-yl)benzylamino)-5-cyano-N-(1-(4-fluorophenyl)ethyl)nicotinamide] gave an EC50 [1] of 1000 to 10000 nM and an IC50 [2] of less than 100 nM.
For `C[C@H](NC(=O)c1cc(C#N)cnc1NCc1ccc(-c2cnc3c(c2)OCCN3)cc1)c1ccc(F)cc1` [Example 137, (S)-5-cyano-2-(4-(3,4-dihydro-2H-pyrido [3,2-b][1,4]oxazin-7-yl)benzylamino)-N-(1-(4-fluorophenyl)ethyl)nicotinamide], the EC50 [1] was 1000 to 10000 nM and the IC50 [2] was less than 100 nM.
Work on `Cc1nc2cc(-c3ccc(CNc4ncc(C#N)cc4C(=O)N[C@@H](C)c4ccc(F)cc4)cc3)cnc2[nH]1` [Example 138, (S)-5-cyano-N-(1-(4-fluorophenyl)ethyl)-2-(4-(2-methyl-3H-imidazo[4,5-b]pyridin-6-yl)benzylamino) nicotinamide] yielded an EC50 [1] of less than 1000 nM and an IC50 [2] of less than 100 nM.
For `C[C@H](NC(=O)c1cc(C#N)cnc1NCc1ccc(-c2cnc3c(c2)CCN3)cc1)c1ccc(F)cc1` [Example 139, (S)-5-cyano-2-(4-(3,4-dihydro-1H-pyrrolo [2,3-b]pyridin-5-yl)benzylamino)-N-(1-(4-fluorophenyl)ethyl) nicotinamide], the EC50 [1] was less than 1000 nM and the IC50 [2] was less than 100 nM.
In the case of `CNc1ccc(-c2ccc(CNc3ncc(C#N)cc3C(=O)N[C@@H](C)c3ccc(F)cc3)cc2)cn1` [Example 141], the EC50 [1] is reported as 1000 to 10000 nM and the IC50 [2] is reported as less than 100 nM.
Compound `C[C@H](NC(=O)c1cc(C#N)cnc1NCc1ccc(-c2c[nH]nc2N)cc1)c1ccc(F)cc1` [Example 142, (S)-2-(4-(3-amino-1H-pyrazol-4-yl)benzylamino)-5-cyano-N-(1-(4-fluorophenyl)ethyl) nicotinamide] has an EC50 [1] of 1000 to 10000 nM and an IC50 [2] greater than 5000 nM.
`C[C@H](NC(=O)c1cc(C#N)cnc1NCc1ccc(-c2cn(S(=O)(=O)c3ccccc3)nc2N)cc1)c1ccc(F)cc1` [Example 143, (S)-2-(4-(3-amino-1-(phenylsulfonyl)-1H-pyrazol-4-yl)benzylamino)-5-cyano-N-(1-(4-fluorophenyl)ethyl) nicotinamide] was tested, and the EC50 [1] was greater than 10000 nM and the IC50 [2] was greater than 5000 nM.
`C[C@H](NC(=O)c1cc(C#N)cnc1NCc1ccc(-c2cccc3n[nH]c(=O)n23)cc1)c1ccc(F)cc1` [Example 144, (S)-5-cyano-N-(1-(4-fluorophenyl)ethyl)-2-(4-(3-oxo-2,3-dihydro-[1,2,4]triazolo[4,3-a]pyridin-5-yl)benzyl-amino)nicotinamide] was tested, and the EC50 [1] was greater than 10000 nM and the IC50 [2] was greater than 5000 nM.
`C[C@H](NC(=O)c1cc(C#N)cnc1NCc1ccc(-c2ccc3n[nH]c(=O)n3c2)cc1)c1ccc(F)cc1` [Example 145, (S)-5-cyano-N-(1-(4-fluorophenyl)ethyl)-2-(4-(3-oxo-2,3-dihydro-[1,2,4]triazolo[4,3-a]pyridin-6-yl)benzyl-amino)nicotinamide] showed an EC50 [1] greater than 10000 nM and an IC50 [2] greater than 5000 nM.
Work on `C[C@H](NC(=O)c1cc(C#N)cnc1NCc1ccc(-c2cnc3[nH]nc(C#CCN(C)C)c3c2)cc1)c1ccc(F)cc1` [Example 146, (S)-5-cyano-2-(4-(3-(3-(dimethylamino)prop-1-ynyl)-1H-pyrazolo[3,4-b]pyridin-5-yl)benzyl-amino)-N-(1-(4-fluorophenyl)ethyl) nicotinamide] yielded an EC50 [1] of less than 1000 nM and an IC50 [2] of less than 100 nM.
`CCCc1n[nH]c2ncc(-c3ccc(CNc4ncc(C#N)cc4C(=O)N[C@@H](C)c4ccc(F)cc4)cc3)cc12` [Example 147, (S)-5-cyano-N-(1-(4-fluorophenyl)ethyl)-2-(4-(3-propyl-1H-pyrazolo[3,4-b]pyridin-5-yl)benzyl-amino)nicotinamide] showed an EC50 [1] of 1000 to 10000 nM and an IC50 [2] of less than 100 nM.
In the case of `C[C@H](NC(=O)c1cc(C#N)cnc1NCc1ccc(-c2cnc(N)c(C(=O)O)c2)cc1)c1ccc(F)cc1` [Example 148, (S)-2-amino-5-(4-((5-cyano-3-(1-(4-fluorophenyl)ethylcarbamoyl)pyridin-2-ylamino)methyl)phenyl) nicotinic acid], the EC50 [1] is reported as greater than 10000 nM and the IC50 [2] is reported as less than 100 nM.
Work on `C[C@H](NC(=O)c1cc(C#N)cnc1NCc1ccc(-c2cnc3[nH]nc(CCCN(C)C)c3c2)cc1)c1ccc(F)cc1` [Example 149, (S)-5-cyano-2-(4-(3-(3-(dimethylamino)propyl)-1H-pyrazolo[3,4-b]pyridin-5-yl)benzyl-amino)-N-(1-(4-fluorophenyl)ethyl) nicotinamide] yielded an EC50 [1] of less than 1000 nM and an IC50 [2] of less than 100 nM.
`C[C@H](NC(=O)c1cc(C#N)cnc1NCc1ccc(-c2cnc3[nH]nc(CCCN)c3c2)cc1)c1ccc(F)cc1` [Example 150] was tested, and the EC50 [1] was less than 1000 nM and the IC50 [2] was less than 100 nM.
`C[C@H](NC(=O)c1cc(C#N)cnc1NCc1ccc(-c2cnc3[nH]nc(CN(C)C)c3c2)cc1)c1ccc(F)cc1` [Example 151, (S)-5-cyano-2-(4-(3-((dimethylamino)methyl)-1H-pyrazolo[3,4-b]pyridin-5-yl)benzyl-amino)-N-(1-(4-fluorophenyl)ethyl) nicotinamide] showed an EC50 [1] greater than 10000 nM and an IC50 [2] of less than 100 nM.
With `C[C@H](NC(=O)c1cc(C#N)cnc1NCc1ccc(-c2cnc3[nH]nc(CN)c3c2)cc1)c1ccc(F)cc1` [Example 152, (S)-2-(4-(3-(aminomethyl)-1H-pyrazolo[3,4-b]pyridin-5-yl)benzyl-amino)-5-cyano-N-(1-(4-fluorophenyl)ethyl)nicotinamide] the EC50 [1] was 1000 to 10000 nM and the IC50 [2] was less than 100 nM.
In the case of `NCCNc1n[nH]c2ncc(-c3ccc(CNc4ncc(C(F)(F)F)cc4C(=O)NCc4ccc(F)c(F)c4)cc3)cc12` [Example 153, 2-(4-(3-(2-amino-ethylamino)-1H-pyrazolo [3,4-b]pyridin-5-yl)benzylamino)-N-(3,4-difluorobenzyl)-5-(trifluoromethyl) nicotinamide], the EC50 [1] is reported as 1000 to 10000 nM and the IC50 [2] is reported as less than 100 nM.
`NCCNc1n[nH]c2ncc(-c3ccc(CNc4ncc(C(F)(F)F)cc4C(=O)Nc4ccc(F)cc4)cc3)cc12` [Example 154, 2-(4-(3-(2-amino-ethylamino)-1H-pyrazolo [3,4-b]pyridin-5-yl)benzylamino)-N-(4-fluorophenyl)-5-(trifluoromethyl) nicotinamide] gave an EC50 [1] of less than 1000 nM and an IC50 [2] of less than 100 nM.
Compound `Nc1cnc(-c2ccc(CNc3ncc(C(F)(F)F)cc3C(=O)Nc3ccc(F)cc3)cc2)cn1` [Example 155, 2-(4-(5-aminopyrazin-2-yl)benzylamino)-N-(4-fluorophenyl)-5-(trifluoromethyl)nicotinamide] has an EC50 [1] of less than 1000 nM and an IC50 [2] of less than 100 nM.
Work on `O=C(Nc1ccc(F)cc1)c1cc(C(F)(F)F)cnc1NCc1ccc(-c2cnc3[nH]ncc3c2)cc1` [Example 156, 2-(4-(1H-pyrazolo[3,4-b]pyridin-5-yl)benzylamino)-N-(4-fluorophenyl)-5-(trifluoromethyl)nicotinamide] yielded an EC50 [1] of less than 1000 nM and an IC50 [2] of less than 100 nM.
Compound `N#CCc1n[nH]c2ncc(-c3ccc(CNc4ncc(C(F)(F)F)cc4C(=O)Nc4ccc(F)cc4)cc3)cc12` [Example 157, 2-(4-(3-(cyanomethyl)-1H-pyrazolo[3,4-b]pyridin-5-yl)benzylamino)-N-(4-fluorophenyl)-5-(trifluoro-methyl)nicotinamide] has an EC50 [1] of less than 1000 nM and an IC50 [2] of less than 100 nM.
Work on `C[C@H](NC(=O)c1cc(C#N)cnc1NCc1ccc(-c2cnc(N)c(CCCN(C)C)n2)cc1)c1ccc(F)cc1` [Example 158, (S)-2-(4-(5-amino-6-(3-(dimethylamino)propyl)pyrazin-2-yl)benzylamino)-5-cyano-N-(1-(4-fluorophenyl)ethyl) nicotinamide] yielded an EC50 [1] of less than 1000 nM and an IC50 [2] of less than 100 nM.
